According to patent EP4768479A1 (Hubei Bio-Pharmaceutical Industrial Technological Institute …, priority 2023, dated 2025):

What was measured:
[1] = Liver microsomal stability assay; assay type: in vitro ADME; details: human liver microsomes, NADPH, 37°C; read-out: T1/2 (min) Human
Method: The human liver microsome stability assay was performed by co-incubating the compound with human liver microsomes in vitro. The test compounds were first prepared as 10 mM stock solutions in DMSO solvent, and then diluted to 0.5 mM with acetonitrile. Human liver microsomes (Corning) were diluted with PBS to prepare a microsome/buffer solution, and this solution was used to dilute 0.5 mM of the compound to prepare a working solution. In the working solution, a concentration of the compound was 1.5 µM and a concentration of the human liver microsome was 0.75 mg/mL. A deep-well plate was taken, 30 µL of working solution was added to each well of the plate, and then 15 µL of pre-heated NADPH solution (6 mM) was added to start the reaction. The mixture was incubated at 37°C. 135 µL of acetonitrile was added to the corresponding wells to stop the reaction at 0 minute, 5 minutes, 15 minutes, 30 minutes, and 45 minutes of incubation. Subsequent to the stop of the reaction by means of acetonitrile at the last time point of 45 minutes, the plate was vortexed for 10 minutes (600 rpm/min) and then centrifuged for 15 minutes. After the centrifugation, the supernatant was taken, and purified water was added in a 1:1 ratio for LC-MS/MS detection. The ratio of a peak area of the compound to a peak area of the internal standard at individual time points was obtained. The peak area ratios of the compound at 5 minutes, 15 minutes, 30 minutes, and 45 minutes were compared with the peak area ratio at 0 minute, and the remaining percentage of the compound at each time point was calculated. T1/2 was calculated using Graphpad8 software. [Table 3] Liver Microsomal Stability of Compounds

CYP1A2 = target: T1, CYP1A2 (Homo sapiens, UniProt P05177); test: CYP inhibition assay in mixed human liver microsomes; assay type: in vitro ADME; details: read-out: Inhibition Rate % CYP1A2
T1 construct: Mixed human liver microsomes; from tissue; host or cells: mixed (pooled) human liver microsomes
T1 sequence (P05177 1-516): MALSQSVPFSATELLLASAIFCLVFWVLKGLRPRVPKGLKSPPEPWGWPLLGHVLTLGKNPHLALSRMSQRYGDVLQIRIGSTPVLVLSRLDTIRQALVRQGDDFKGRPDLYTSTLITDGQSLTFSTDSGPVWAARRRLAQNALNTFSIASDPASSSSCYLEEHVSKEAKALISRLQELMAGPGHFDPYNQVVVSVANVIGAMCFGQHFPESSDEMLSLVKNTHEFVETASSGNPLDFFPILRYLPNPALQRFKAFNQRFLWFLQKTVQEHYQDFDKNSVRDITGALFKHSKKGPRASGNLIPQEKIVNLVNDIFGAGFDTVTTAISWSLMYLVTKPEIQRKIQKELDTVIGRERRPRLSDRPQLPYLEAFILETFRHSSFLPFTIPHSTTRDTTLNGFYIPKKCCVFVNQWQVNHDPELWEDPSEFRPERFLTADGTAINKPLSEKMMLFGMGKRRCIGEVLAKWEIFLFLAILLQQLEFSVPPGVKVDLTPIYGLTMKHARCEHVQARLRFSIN
Method: (§1) The inhibitory effects of the compounds on six enzymes, i.e., CYP1A2, CYP2C9, CYP2C19, CYP2D6, CYP3A4 (midazolam), and CYP2B6, were evaluated at a concentration of 10 µM. Mixed human liver microsomes, which were previously stored in a -80°C refrigerator before use, were taken out and thawed in a water bath at 37°C before use, and placed on ice for further operation. 100 µL of microsome working solution was taken, and added with 2 µL of compound or positive inhibitor working solution. 2 µL of solvent was added to the solvent control. The mixture was pre-incubated in a water bath at 37°C for 10 minutes. After the preincubation, 98 µL of NADPH regeneration solution was added to all samples to initiate the reaction. Then, the samples were put back into the water bath and incubated for a period of time. The reaction was quenched with 200 µL of stop solution. The plate was centrifuged at 3,220 g for 10 minutes, 100 µL of supernatant was transferred, and 100 µL of water was added and mixed well to the assay plate for LC/MS/MS analysis. [Table 2] CYP450 Inhibition Results of Compounds

CYP2C19 = target: T2, CYP2C19 (Homo sapiens, UniProt P33261); test: as above; assay type: in vitro ADME; details: read-out: Inhibition Rate % CYP2C19
T2 construct: Mixed human liver microsomes; from tissue; host or cells: mixed (pooled) human liver microsomes
T2 sequence (P33261 whole entry): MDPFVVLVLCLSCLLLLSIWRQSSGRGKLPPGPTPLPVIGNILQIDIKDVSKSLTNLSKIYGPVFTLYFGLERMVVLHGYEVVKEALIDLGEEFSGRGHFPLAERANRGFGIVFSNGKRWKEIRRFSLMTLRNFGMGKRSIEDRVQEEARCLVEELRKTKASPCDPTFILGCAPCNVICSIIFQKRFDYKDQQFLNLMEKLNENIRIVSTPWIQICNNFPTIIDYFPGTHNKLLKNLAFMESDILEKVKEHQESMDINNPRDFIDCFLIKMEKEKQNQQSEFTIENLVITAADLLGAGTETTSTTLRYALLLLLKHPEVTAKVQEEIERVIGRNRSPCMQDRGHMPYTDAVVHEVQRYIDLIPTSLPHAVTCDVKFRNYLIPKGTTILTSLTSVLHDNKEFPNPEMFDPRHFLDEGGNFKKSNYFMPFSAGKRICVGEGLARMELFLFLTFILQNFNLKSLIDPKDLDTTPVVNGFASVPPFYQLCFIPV
Method: as §1

CYP3A4 = target: T3, CYP3A4 (Homo sapiens, UniProt P08684); test: as above; assay type: in vitro ADME; details: probe midazolam, read-out: Inhibition Rate % CYP3A4 (midazolam)
T3 construct: Mixed human liver microsomes; from tissue; host or cells: mixed (pooled) human liver microsomes
T3 sequence (P08684 whole entry): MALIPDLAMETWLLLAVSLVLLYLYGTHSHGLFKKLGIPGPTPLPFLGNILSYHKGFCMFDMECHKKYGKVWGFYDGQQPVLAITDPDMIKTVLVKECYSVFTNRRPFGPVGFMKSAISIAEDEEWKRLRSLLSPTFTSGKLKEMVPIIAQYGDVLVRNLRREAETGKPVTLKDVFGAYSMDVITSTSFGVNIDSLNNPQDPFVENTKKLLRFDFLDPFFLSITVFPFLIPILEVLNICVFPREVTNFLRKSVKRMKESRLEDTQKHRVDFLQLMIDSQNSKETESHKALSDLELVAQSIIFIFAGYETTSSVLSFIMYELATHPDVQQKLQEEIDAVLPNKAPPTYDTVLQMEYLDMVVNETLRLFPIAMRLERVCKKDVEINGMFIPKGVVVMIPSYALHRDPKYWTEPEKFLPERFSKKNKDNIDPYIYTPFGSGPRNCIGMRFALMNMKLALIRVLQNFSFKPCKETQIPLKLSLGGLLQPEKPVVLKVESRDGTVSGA
Method: as §1

[2] = Pharmacokinetic study following single oral gavage administration to cynomolgus monkeys; assay type: in vivo; details: cynomolgus monkey, plasma, 5 mg/kg; Monkey PK PO (5 mpk)
Method: The compounds were dissolved in a vehicle consisting of 5% DMSO+10% Solutol+85% Saline to a concentration of 1 mg/mL, and administered at a dose of 5 mpk. The animals were weighed before the administration, and the dosing volume was calculated based on the body weight. The compounds were administered to the animals via oral gavage. Blood samples were collected via a femoral vein or other suitable methods at time points of 0.083 hours, 0.25 hours, 0.5 hours, 1 hour, 2 hours, 4 hours, 6 hours, 8 hours, and 24 hours. Approximately 1 mL of each sample was collected at each time point, anticoagulated with sodium heparin, and placed on ice immediately after the collection. After the blood samples were collected, they were placed on ice and centrifuged within 1 hour to separate plasma (centrifugation conditions: 2,200g, 10 minutes, and 2°C to 8°C). The plasma samples were stored in a -80°C refrigerator until analysis.
The bioanalytical method and sample analysis were performed by the Analytical Laboratory of Medicilon Inc. (Shanghai, China). Intra-day accuracy of quality control samples was evaluated concurrently with the sample analysis, requiring that accuracy of more than 66.7% of the quality control samples fell within the range of 80% to 120%. [Table 5] Pharmacokinetics of Compounds in Monkeys

SMILES: COC(=O)NS(=O)(=O)c1sc(CC(C)C)c(C)c1-c1ccc(Cn2ccnc2C(F)(F)F)cc1 [Compound I-9, Methyl ((5-isobutyl-4-methyl-3-(4-((2-(trifluoromethyl)-1H-imidazol-1-yl)methyl)phenyl)thiophen-2-yl)sulfonyl)carbamate]
- half-life at 1 µM [1]: 50.2 min
- inhibition at 10 µM (CYP1A2): 0%
- inhibition at 10 µM (CYP2C19): 29.8%
- inhibition at 10 µM (CYP3A4): 0%
- AUC(0-t) [2]: 7790 ng·h/mL
- Cmax [2]: 5310 ng/mL

SMILES: Cc1c(CC(C)C)sc(S(=O)(=O)NC(=O)OCC(C)(C)O)c1-c1ccc(Cn2ccnc2C(F)(F)F)cc1 [Compound I-10, 2-hydroxy-2-methylpropyl ((5-isobutyl-4-methyl-3-(4-((2-(trifluoromethyl)-1H-imidazol-1-yl)methyl)phenyl)thiophen-2-yl)sulfonyl)carbamate]
- half-life at 1 µM [1]: 83.2 min
- inhibition at 10 µM (CYP1A2): 0%
- inhibition at 10 µM (CYP2C19): 7.4%
- inhibition at 10 µM (CYP3A4): 0%
- AUC(0-t) [2]: 5570 ng·h/mL
- Cmax [2]: 3560 ng/mL

SMILES: Cc1c(CC(C)C)sc(S(=O)(=O)NC(=O)OCCO)c1-c1ccc(Cn2ccnc2C(F)(F)F)cc1 [Compound I-13, 2-hydroxyethyl ((5-isobutyl-4-methyl-3-(4-((2-(trifluoromethyl)-1H-imidazol-1-yl)methyl)phenyl)thiophen-2-yl)sulfonyl)carbamate]
- half-life at 1 µM [1]: 46.4 min
- inhibition at 10 µM (CYP1A2): 3.5%
- inhibition at 10 µM (CYP2C19): 17.3%
- inhibition at 10 µM (CYP3A4): 9.6%

SMILES: COC(=O)NS(=O)(=O)c1sc(CC(C)C)c(C)c1-c1ccc(Cn2ccnc2Cl)c(F)c1 [Compound I-14, Methyl ((3-(4-((2-chloro-1H-imidazol-1-yl)methyl)-3-fluorophenyl)-5-isobutyl-4-methylthiophen-2-yl)sulfonyl)carbamate]
- half-life at 1 µM [1]: 45 min
- inhibition at 10 µM (CYP1A2): 5.6%
- inhibition at 10 µM (CYP2C19): 11.9%
- inhibition at 10 µM (CYP3A4): 14%
- AUC(0-t) [2]: 7350 ng·h/mL
- Cmax [2]: 5040 ng/mL

SMILES: COC(=O)NS(=O)(=O)c1sc(CC(C)C)c(C)c1-c1ccc(Cn2ccnc2C(C)(C)O)cc1 [Compound I-19, Methyl ((3-(4-((2-(2-hydroxypropan-2-yl)-1H-imidazol-1-yl)methyl)phenyl)-5-isobutyl-4-methylthiophen-2-yl)sulfonyl)carbamate]
- half-life at 1 µM [1]: 71.2 min
- inhibition at 10 µM (CYP1A2): 0%
- inhibition at 10 µM (CYP2C19): 0%
- inhibition at 10 µM (CYP3A4): 7.6%
- AUC(0-t) [2]: 6820 ng·h/mL
- Cmax [2]: 4030 ng/mL

SMILES: Cc1c(CC(C)C)sc(S(=O)(=O)Nc2ncccn2)c1-c1ccc(Cn2ccnc2Cl)cc1 [Compound I-23, 3-(4-((2-chloro-1H-imidazol-1-yl)methyl)phenyl)-5-isobutyl-4-methyl-N-(pyrimidin-2-yl)thiophene-2-sulfonamide]
- half-life at 1 µM [1]: 39.3 min
- inhibition at 10 µM (CYP1A2): 8.3%
- inhibition at 10 µM (CYP2C19): 15.4%
- inhibition at 10 µM (CYP3A4): 0%

SMILES: CCCCOC(=O)NS(=O)(=O)c1sc(CC(C)C)cc1-c1ccc(Cn2ccnc2)cc1 [Control Compound I, reference compound]
- half-life at 1 µM [1]: 9.13 min
- inhibition at 10 µM (CYP1A2): 95.4%
- inhibition at 10 µM (CYP2C19): 100%
- inhibition at 10 µM (CYP3A4): 92.6%
- AUC(0-t) [2]: 4920 ng·h/mL
- Cmax [2]: 1320 ng/mL
